The subject of test [1] is SB.msgc-1. Put plainly: viability at highest tested concentration (MAXR) relative to DMSO; higher = less cytotoxic. Particulars: SB.msgc-1 (sporadic gastric cancer). The method in brief: (§1)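 A pintool delivered 23 nL of compound in DMSO to 1536-well plates holding 500 hereditary or sporadic patient-derived gastric cancer cells in 5 μL medium per well, at 11 concentrations in threefold steps. Following 48 h of exposure, cells were treated with CellTiter-Glo for 30 min at room temperature, and plates were read for luminescence on a ViewLux. The reported measure is viability normalised to DMSO, either at the top concentration or as trapezoidal area under the curve.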

Test [2] has as its system SB.mhdgc-1. The test is described as above. To be noted: SB.mhdgc-1 (hereditary c.1380delA CDH1 gastric cancer). In outline: as §1
In test [3] the test system is SB.msgc-1. Kind of test: area under the dose-response curve of % viability (trapezoidal, 11 doses) (% viability x log10 concentration); higher = less cytotoxic. Particulars: SB.msgc-1 (sporadic gastric cancer). In outline:
as §1

Test [4] concerns SB.mhdgc-1. Described as above. Particulars: SB.mhdgc-1 (hereditary c.1380delA CDH1 gastric cancer). In outline:
as §1

Counter-ions that a name gives are not always drawn.

As a reminder, the viability is a read-out of living cells in per cent, often relative to untreated cells. Consider `CCCCCCCc1ccc(CCc2cccc(O)c2C(=O)O)cc1` [MG-149] (top concentration 46.0829 µM), for which the results for the viability in the test on SB.msgc-1 [1] and in the test with SB.mhdgc-1 [2] were 79.6% and 90.6%, respectively. The figures for the “area under the dose-response curve” value with SB.msgc-1 [3] and with SB.mhdgc-1 [4] were 511 and 525, respectively.
Consider `CCN(CC)CCOC1=CC=C(NC2=NC=C3\C=C(/C(=O)N(C)C3=N2)C4=C(Cl)C=CC=C4Cl)C=C1` (top concentration 46.0829 µM), for which the viability in the test on SB.msgc-1 [1] came out at 29.6%; in the test with SB.mhdgc-1 [2], 3.62%. For the same compound, the “area under the dose-response curve” value was 400 in the test with SB.msgc-1 [3] and 428 in the test with SB.mhdgc-1 [4].
The like results for `COC(=O)Nc1ccc(-c2nc(N3CCOCC3)c3cnn(C4CCN(Cc5cccnc5)CC4)c3n2)cc1` [WYE-687] (top concentration 46.0829 µM) were, in that order, 46.2%, 20.2%, 452 and 304.
Turning to `CCc1cnn2c(NCc3ccc[n+]([O-])c3)cc(N3CCCC[C@H]3CCO)nc12` [Dinaciclib] (top concentration 46.0829 µM), the viability with SB.msgc-1 [1] is 42.2%; in the test with SB.mhdgc-1 [2] it was 59.7%. Further, the “area under the dose-response curve” value in the test with SB.msgc-1 [3] was 299; in the test with SB.mhdgc-1 [4], 351.
With `O=C(NCC1CCCCN1)c1cc(OCC(F)(F)F)ccc1OCC(F)(F)F` (stereo not drawn) [Flecainide] (top concentration 46.0829 µM), the viability is 7.7% with SB.msgc-1 [1] and 3.79% in the test on SB.mhdgc-1 [2]. Besides, the “area under the dose-response curve” value in the test on SB.msgc-1 [3] worked out at 499; with SB.mhdgc-1 [4] it was 456.
As to `CCC[C@H](NC(=O)/C(C#N)=C/c1cccc(Br)n1)c1ccccc1` [Degrasyn] (top concentration 46.0829 µM), the viability in the test on SB.msgc-1 [1] came out at 1.04%; in the test with SB.mhdgc-1 [2], 7.59%. Besides, the “area under the dose-response curve” value in the test with SB.msgc-1 [3] came out at 404; in the test with SB.mhdgc-1 [4] it was 464.
Consider `COC1=C(N2CCNC(C)C2)C(=CC3=C1N(\C=C(C(O)=O)/C3=O)C4CC4)F` (stereo not drawn) [Gatifloxacin] (top concentration 46.0829 µM), for which the viability is 90.3% with SB.msgc-1 [1] and 90.4% in the test on SB.mhdgc-1 [2]. Besides, the “area under the dose-response curve” value in the test with SB.msgc-1 [3] was 517; with SB.mhdgc-1 [4], 534.
In the case of `O=C(CCN1CCN(C(=O)OCc2cc(Cl)cc(Cl)c2)CC1)c1ccc2[nH]c(=O)oc2c1` [PF-8380] (top concentration 46.0829 µM), the viability was found to be 89.4% in the test on SB.msgc-1 [1] and 74.2% in the test on SB.mhdgc-1 [2]. In addition, the “area under the dose-response curve” value amounted to 578 in the test with SB.msgc-1 [3] and 517 in the test on SB.mhdgc-1 [4].
For `COc1cc(/C=C/C(=O)CC(=O)/C=C/c2ccc(O)c(OC)c2)ccc1O` [Curcumin] (top concentration 92.1659 µM), in that order: 8.44%, 16.2%, 521 and 519.
Take `CCOc1cc(C(=O)Nc2ccc(Cl)c(-c3nc4ccccc4[nH]3)c2)cc(OCC)c1OCC` [SANT-2] (top concentration 46.0829 µM): the values for the viability in the test on SB.msgc-1 [1] and in the test on SB.mhdgc-1 [2] were 53.1% and 40.2%, respectively. The results for the “area under the dose-response curve” value in the test with SB.msgc-1 [3] and in the test with SB.mhdgc-1 [4] were 450 and 389, respectively.
For `Cc1cc(O)c2c(c1)C(=O)c1cccc(O)c1C2=O` [Chrysophanol] (top concentration 46.0829 µM), in that order: 109%, 112%, 518 and 535.
`C[C@]12Cc3cn[nH]c3C[C@@H]1CC[C@@H]1[C@@H]2CC[C@@]2(C)[C@H]1CC[C@]2(C)O` [Stanozolol] (top concentration 46.0829 µM): the figures for the viability in the test on SB.msgc-1 [1] and in the test with SB.mhdgc-1 [2] were 55.5% and 44.9%, respectively. Moreover, the figures for the “area under the dose-response curve” value with SB.msgc-1 [3] and in the test on SB.mhdgc-1 [4] were 510 and 444, respectively.
For `C\C1=C(\C=C(\C#N)C(=O)N1)C2=CC=NC=C2` [Milrinone] (top concentration 46.0829 µM), the viability in the test on SB.msgc-1 [1] was 44.2%; in the test with SB.mhdgc-1 [2] it was 11.8%. Also, the “area under the dose-response curve” value in the test with SB.msgc-1 [3] amounted to 475; in the test on SB.mhdgc-1 [4], 544.
For `O=C1NC(=O)/C(=C\c2ccc(-c3ccc(F)cc3)o2)S1` (top concentration 46.0829 µM), in that order: 65.2%, 85.9%, 504 and 531.
Consider `CC1(C)CC(=O)c2c(C(F)(F)F)nn(-c3ccc(C(N)=O)c(NC4CCC(O)CC4)c3)c2C1` (stereo not drawn) [SNX-2112] (top concentration 46.0829 µM), for which the viability in the test on SB.msgc-1 [1] turned out to be 48.4%; in the test with SB.mhdgc-1 [2], 44.6%. In addition, the “area under the dose-response curve” value with SB.msgc-1 [3] is 311; in the test on SB.mhdgc-1 [4], 362.
As to `CN1CCC(=C2c3ccccc3CCc3sccc32)CC1` [Pizotifen] (top concentration 46.0829 µM), the viability came out at 100% with SB.msgc-1 [1] and 66.1% in the test on SB.mhdgc-1 [2]. The “area under the dose-response curve” value in the test on SB.msgc-1 [3] was 560; with SB.mhdgc-1 [4] it was 588.
Regarding `Clc1ccc(C(c2ccc(Cl)cc2)[n+]2ccn(CC(OCc3ccc(Cl)cc3Cl)c3ccc(Cl)cc3Cl)c2)cc1` (stereo not drawn) [Calmidazolium chloride] (top concentration 46.0829 µM), the viability with SB.msgc-1 [1] is 0.432%; in the test on SB.mhdgc-1 [2], 0.451%. For the same compound, the entries for the “area under the dose-response curve” value in the test with SB.msgc-1 [3] and in the test on SB.mhdgc-1 [4] were 534 and 396, respectively.
For the compound `COC1=NC(=NC(=C1N\C2=N\CCN2)Cl)C` [Moxonidine hydrochloride hydrate] (top concentration 46.0829 µM), the figures for the viability with SB.msgc-1 [1] and in the test on SB.mhdgc-1 [2] were 122% and 77.7%, respectively. For the same compound, the results for the “area under the dose-response curve” value in the test with SB.msgc-1 [3] and in the test on SB.mhdgc-1 [4] were 489 and 430, respectively.
For the compound `O=C(Nc1nc2cccc(-c3ccc(CN4CC[S+](=O)([O-])CC4)cc3)n2n1)C1CC1` [GPLG-0634] (top concentration 46.0829 µM), the values for the viability with SB.msgc-1 [1] and in the test with SB.mhdgc-1 [2] were 50.3% and 41.3%, respectively. Besides, the “area under the dose-response curve” value in the test on SB.msgc-1 [3] was found to be 529; with SB.mhdgc-1 [4] it was 525.
Take `Cn1cc(-c2ccc3nnc(Sc4ccc5ncccc5c4)n3n2)cn1` [SGX-523] (top concentration 46.0829 µM): the viability with SB.msgc-1 [1] came to 61.2%; in the test on SB.mhdgc-1 [2], 32.5%. Moreover, the “area under the dose-response curve” value in the test on SB.msgc-1 [3] was found to be 502; in the test with SB.mhdgc-1 [4] it was 483.
For `COC1=CC=C(C=C1O)C/2=C/C(=O)C3=C(O2)C=C(O[C@@H]4O[C@H](CO[C@@H]5O[C@@H](C)[C@H](O)[C@@H](O)[C@H]5O)[C@@H](O)[C@H](O)[C@H]4O)C=C3O` [Diosmin] (top concentration 46.0829 µM), the values for the viability with SB.msgc-1 [1] and with SB.mhdgc-1 [2] were 48.1% and 39.5%, respectively. The “area under the dose-response curve” value with SB.msgc-1 [3] was 427; in the test with SB.mhdgc-1 [4] it was 494.
For `COC1=CC=C(C=C1)/C2=C(O)/C(=O)C3=C(O)C=C(O)C(=C3O2)CC=C(C)C` [Icaritin] (top concentration 46.0829 µM), the viability was determined as 20.8% in the test with SB.msgc-1 [1] and 26% in the test with SB.mhdgc-1 [2]. Also, the “area under the dose-response curve” value was determined as 506 in the test with SB.msgc-1 [3] and 476 in the test on SB.mhdgc-1 [4].

For the origin of these results see the supplement of paper PMC5412046.
